Reference: ChEMBL document CHEMBL1201862, “PubChem BioAssay data set” (2004)
Calls of active or inactive are those of the source.

Experiments:
INS1 = test: INS-1E survival protection against cytokine death – cell-based, luminescence, retest, dose response (AID 449756); format: functional; conditions: Rattus norvegicus;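 further: cell death triggered by IL-1 beta plus TNF-alpha plus IFN-gamma mixture; protective hits raise ATP signal compared with cytokine alone wells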
[1] = target: T1, Apoptotic protease-activating factor 1 (Homo sapiens, UniProt O14727); format: functional
T1 sequence (O14727 whole entry): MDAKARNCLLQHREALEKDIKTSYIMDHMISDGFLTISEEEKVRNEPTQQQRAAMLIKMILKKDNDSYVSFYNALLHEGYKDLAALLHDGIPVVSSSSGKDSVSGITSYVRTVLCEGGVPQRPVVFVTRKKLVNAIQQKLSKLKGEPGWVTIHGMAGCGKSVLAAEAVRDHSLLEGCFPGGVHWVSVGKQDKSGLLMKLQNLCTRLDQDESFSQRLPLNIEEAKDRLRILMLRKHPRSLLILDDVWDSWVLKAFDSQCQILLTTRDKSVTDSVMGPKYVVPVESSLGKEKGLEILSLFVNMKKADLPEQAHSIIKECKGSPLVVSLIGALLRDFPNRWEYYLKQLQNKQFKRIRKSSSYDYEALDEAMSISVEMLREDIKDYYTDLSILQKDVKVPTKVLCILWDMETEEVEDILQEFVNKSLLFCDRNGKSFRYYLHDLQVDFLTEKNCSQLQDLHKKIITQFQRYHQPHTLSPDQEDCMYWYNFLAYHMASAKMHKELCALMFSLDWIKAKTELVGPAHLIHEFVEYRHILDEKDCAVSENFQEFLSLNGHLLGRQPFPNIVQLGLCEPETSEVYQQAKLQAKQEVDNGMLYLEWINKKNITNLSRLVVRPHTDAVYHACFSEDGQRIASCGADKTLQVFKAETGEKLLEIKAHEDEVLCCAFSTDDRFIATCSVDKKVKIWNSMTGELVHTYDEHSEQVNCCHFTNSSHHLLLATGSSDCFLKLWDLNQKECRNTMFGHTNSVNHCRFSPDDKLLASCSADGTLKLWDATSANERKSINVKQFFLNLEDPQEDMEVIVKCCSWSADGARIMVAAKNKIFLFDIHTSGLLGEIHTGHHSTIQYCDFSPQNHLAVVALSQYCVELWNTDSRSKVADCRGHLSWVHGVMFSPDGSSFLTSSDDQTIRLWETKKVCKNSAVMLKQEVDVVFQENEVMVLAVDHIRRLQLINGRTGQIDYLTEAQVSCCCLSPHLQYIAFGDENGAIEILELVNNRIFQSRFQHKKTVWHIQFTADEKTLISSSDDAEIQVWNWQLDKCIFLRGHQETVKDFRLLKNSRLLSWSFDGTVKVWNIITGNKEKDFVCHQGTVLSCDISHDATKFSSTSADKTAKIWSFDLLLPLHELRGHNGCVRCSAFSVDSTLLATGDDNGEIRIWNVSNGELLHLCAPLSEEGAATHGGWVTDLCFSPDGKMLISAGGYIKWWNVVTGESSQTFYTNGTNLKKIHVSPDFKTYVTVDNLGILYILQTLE

Caspase-3 = target: T2, Caspase-3 (Homo sapiens, UniProt P42574); format: functional;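 further: Dose-response selectivity test against caspase-3 for candidate inhibitors of sentrin-specific proteases (SENPs)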
T2 sequence (P42574 whole entry): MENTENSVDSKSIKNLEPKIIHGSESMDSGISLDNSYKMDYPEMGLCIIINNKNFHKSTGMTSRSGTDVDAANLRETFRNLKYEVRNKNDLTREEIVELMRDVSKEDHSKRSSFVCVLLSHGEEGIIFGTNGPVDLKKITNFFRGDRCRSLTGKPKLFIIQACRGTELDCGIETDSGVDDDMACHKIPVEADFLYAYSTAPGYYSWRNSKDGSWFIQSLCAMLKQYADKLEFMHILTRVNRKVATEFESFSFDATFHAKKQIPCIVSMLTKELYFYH

[2] = target: T3, Sentrin-specific protease 7 (Homo sapiens, UniProt Q9BQF6); format: functional;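 further: Luminescence-based dose-response confirmation of ultra-high-throughput screening hits, measuring inhibition of SENP7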
T3 sequence (Q9BQF6 whole entry): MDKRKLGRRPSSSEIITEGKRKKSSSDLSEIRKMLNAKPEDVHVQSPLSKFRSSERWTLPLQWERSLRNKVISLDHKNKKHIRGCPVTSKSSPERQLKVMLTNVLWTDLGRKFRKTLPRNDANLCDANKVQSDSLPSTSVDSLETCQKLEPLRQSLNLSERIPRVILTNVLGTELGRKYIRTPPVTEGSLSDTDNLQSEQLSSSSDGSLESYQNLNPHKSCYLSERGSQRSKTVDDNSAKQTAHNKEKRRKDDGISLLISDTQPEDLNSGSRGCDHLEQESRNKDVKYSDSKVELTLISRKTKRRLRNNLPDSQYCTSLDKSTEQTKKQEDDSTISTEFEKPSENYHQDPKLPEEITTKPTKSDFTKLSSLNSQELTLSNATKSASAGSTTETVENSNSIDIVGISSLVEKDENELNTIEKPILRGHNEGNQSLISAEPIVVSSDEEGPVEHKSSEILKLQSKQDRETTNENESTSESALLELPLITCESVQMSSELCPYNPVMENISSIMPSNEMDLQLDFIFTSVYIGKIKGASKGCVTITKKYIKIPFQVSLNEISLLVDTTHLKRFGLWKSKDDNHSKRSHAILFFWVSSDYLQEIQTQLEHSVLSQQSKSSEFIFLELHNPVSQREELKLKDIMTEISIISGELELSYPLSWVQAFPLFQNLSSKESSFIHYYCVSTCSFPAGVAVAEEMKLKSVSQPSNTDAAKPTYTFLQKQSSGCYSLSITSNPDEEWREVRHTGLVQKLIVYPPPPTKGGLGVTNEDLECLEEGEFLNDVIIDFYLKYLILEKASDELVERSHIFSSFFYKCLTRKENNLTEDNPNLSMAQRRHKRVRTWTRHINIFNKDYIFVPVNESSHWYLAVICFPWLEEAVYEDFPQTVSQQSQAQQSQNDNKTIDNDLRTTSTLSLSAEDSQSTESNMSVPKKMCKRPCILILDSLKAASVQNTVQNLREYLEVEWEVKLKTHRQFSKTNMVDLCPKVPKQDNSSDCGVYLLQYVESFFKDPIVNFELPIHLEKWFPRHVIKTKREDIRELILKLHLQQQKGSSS

[3] = target: T4, Tyrosyl-DNA phosphodiesterase 2 (Homo sapiens, UniProt O95551); test: potency against TDP2 phosphodiesterase activity – biochemical, epi absorbance, IC50, dose response (AID 743297)
T4 sequence (O95551 whole entry): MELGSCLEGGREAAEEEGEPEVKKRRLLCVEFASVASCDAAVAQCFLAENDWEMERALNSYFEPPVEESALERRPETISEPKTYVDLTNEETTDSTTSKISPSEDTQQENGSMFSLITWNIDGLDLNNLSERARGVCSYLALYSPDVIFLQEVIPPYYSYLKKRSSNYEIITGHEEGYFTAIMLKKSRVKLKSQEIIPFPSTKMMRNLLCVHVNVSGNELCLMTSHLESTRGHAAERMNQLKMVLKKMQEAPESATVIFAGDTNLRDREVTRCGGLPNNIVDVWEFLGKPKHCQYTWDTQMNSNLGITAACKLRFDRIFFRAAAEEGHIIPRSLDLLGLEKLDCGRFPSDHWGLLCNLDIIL

[4] = DRD fibroblast viability loss – cell-based, non-viral oncogenic, luminescence, dose response (AID 1934); format: functional; conditions: Homo sapiens

Structure (SMILES) | AC50 (INS1) | IC50 [1] | IC50 (Caspase-3) | IC50 [2] | IC50 [3] | EC50 [4]
CCc1cc[n+](C2=C([N-]S(=O)(=O)c3cccs3)C(=O)c3ccccc3C2=O)cc1 | 2.76 µM (active) | 11.2 µM (active) | 12.5 µM (active) | 8.3 µM (active) |  | 
O=C(NC1=C(NC2CCS(=O)(=O)C2)C(=O)c2ccccc2C1=O)c1ccccc1 (stereo not drawn) |  | 2.1 µM (active) |  |  | 28.3 µM (inactive) | 14.6 µM (active)
CCCC(=O)NC(c1ccc(N(C)C)cc1)c1ccc2cccnc2c1O (stereo not drawn) | 0.598 µM (active) |  |  |  |  | 2.54 µM (active)
COc1ccccc1N(/N=C1\Sc2ccccc2C1=O)C(C)=O |  | 13.3 µM (active) | 27.8 µM (active) | 6.78 µM (active) | 20 µM (inactive) | 
